Results as given in US20090124652A1, “Polymorphs of 1-(2-Methylpropyl)-1H-Imidazo[4,5-C][1,5]Naphthyridin-4-Amine Ethane-Sulfonate” (Takeda Pharmaceutical Company Limited, priority 2004, published 2009).
Values joined by “and” are separate entries in the source; they are usually repeats but may differ in a detail not shown here. Equal entries are not always repeated. “Also recorded” adds a separate entry of the source.

Key:
[1] = system: Peripheral blood mononuclear cells (PBMC); test: Cytokine induction in human cells (in vitro human blood cell system); type: cell-based; conditions: generally tested at 30-0.014 μM, incubated 18 to 24 hours, ELISA
Text: An in vitro human blood cell system is used to assess cytokine induction. Activity is based on the measurement of interferon (α) and tumor necrosis factor (α) (IFN and TNF, respectively) secreted into culture media as described by Testerman et al. in “Cytokine Induction by the Immunomodulators Imiquimod and S-27609,” Journal of Leukocyte Biology, 58, 365-372 (September, 1995).
Whole blood from healthy human donors is collected by venipuncture into EDTA vacutainer tubes. Peripheral blood mononuclear cells (PBMC) are separated from whole blood by density gradient centrifugation using HISTOPAQUE-1077. Blood is diluted 1:1 with Dulbecco's Phosphate Buffered Saline (DPBS) or Hank's Balanced Salts Solution (HBSS). […]
Following incubation the plates are centrifuged for 10 minutes at 1000 rpm (approximately 200×g) at 4° C. […] The samples are analyzed for interferon (α) by ELISA and for tumor necrosis factor (α) by ELISA or IGEN Assay.
Interferon (α) concentration is determined by ELISA using a Human Multi-Species kit from PBL Biomedical Laboratories, New Brunswick, N.J. Results are expressed in pg/mL.
Tumor necrosis factor (α) (TNF) concentration is determined using ELISA kits available from Biosource International, Camarillo, Calif. Alternately, the TNF concentration can be determined by ORIGEN M-Series Immunoassay and read on an IGEN M-8 analyzer from IGEN International, Gaithersburg, Md. […]

[2] = system: cytokine biosynthesis; conditions: U.S. Pat. No. 6,194,425; cited from earlier work
[3] = Hygroscopicity / water sorption of the crystalline form; type: physicochemical; conditions: experimentally determined
Procedure: The automated analysis of water sorption was performed using a VTI Symmetrical Gravimetric Analyzer Model 100 (SGA-100) operated in Step-Isotherm mode. The sample was exposed to a cycle of relative humidity (RH) conditions at 25° C. The relative humidity was cycled from 5% to 95% and back to 5% in increments of 5%, and the weight of the sample at each stage was recorded after equilibration (less than 0.01% weight change within 5 minutes). The percent weight change of the sample as a function of the relative humidity was plotted to yield the adsorption/desorption isotherm.

[4] = Relative stability of the crystalline form; type: physicochemical

In the case of `CC(C)Cn1cnc2c(N)nc3cccnc3c21.CCS(=O)(=O)O.O` (hydrate or solvate), the melting point is reported as 220 to 221 °C and 221.5 to 223.4 °C.

For `CC(C)Cn1cnc2c(N)nc3cccnc3c21.CCS(=O)(=O)O` [1-(2-methylpropyl)-1H-imidazo[4,5-c][1,5]naphthyridin-4-amine ethanesulfonate], the “induction of production of interferon α and/or tumor necrosis factor α” value [1] was “induce the production of certain cytokines; also recorded: inducing the production of interferon α and/or tumor necrosis factor α”.

In the case of `CC(C)Cn1cnc2c(N)nc3cccnc3c21` [1-(2-methylpropyl)-1H-imidazo[4,5-c][1,5]naphthyridin-4-amine], the “ability to induce cytokine biosynthesis” value [2] is given as “induce cytokine biosynthesis”.

For `CC(C)Cn1cnc2c(N)nc3cccnc3c21.CCS(=O)(=O)O` [Form B, 1-(2-methylpropyl)-1H-imidazo[4,5-c][1,5]naphthyridin-4-amine ethanesulfonate], the hygroscopicity [3] was “hygroscopic”.

In the case of `CC(C)Cn1cnc2c(N)nc3cccnc3c21.CCS(=O)(=O)O.O` [Form C, 1-(2-methylpropyl)-1H-imidazo[4,5-c][1,5]naphthyridin-4-amine ethanesulfonate monohydrate], the “stability of crystalline form” value [4] is reported as “relatively stable”.
